“Also recorded” adds a separate entry of the source. Peptide text beside a SMILES is read from it.

The test relates to PBMC from volunteers immunized with Ad-CA or Ad-C. Description: IFN-γ ELISpot assay with cryopreserved PBMC of immunized volunteers. It counts as cell-based, human. Particulars: for Epitope sfc/m: Table 4; for ELISpot response to synthesized epitope (in words): volunteers, positive = p<0.05, at least doubling and at least ten sfc over negative control; for 15 mer sfc/m: Table 2, individual 15mer at 10 μg/mL; for ELISpot response to individual 15mer peptide (in words): volunteers immunized with Ad-CA or Ad-C. On the procedure: Previous studies have confirmed that recall-T cell responses, as assayed by ELISpot, are detected using cryopreserved PBMCs although such responses are generally of a lower magnitude than fresh cells (Sedegah, et al., Malar J., 9: 241 (2011)).
The positive control was commercially obtained Class I Peptide Pool Plus (Anaspec, USA). Negative control was media with all supplements but no antigen-specific stimulant.
Throughout the studies, IFN-γ ELISpot assays were conducted as previously described (Sedegah, et al., Malar J., 9: 241 (2011); Wang, et al., PNAS (USA), 98: 10817-22 (2001)). Cryopreserved PBMC were suspended in 100 μL complete medium and stimulated with CSP peptides in 100 μL of complete medium at a final concentration of 10 μg/mL of each peptide tested (Wang, et al., PNAS (USA), 98: 10817-22 (2001)).
Cultures were incubated for 36 hours at 37° C., 5% CO2. Depending on availability of cells, each PBMC sample was assayed in duplicate, triplicate, or quadruplicate and the number of IFN-γ-secreting spot forming cells (sfc) was counted using an automated ELISpot reader (AID, GmbH, Germany). In duplicate assays, all values were used in analysis. […] The mean number of sfcs obtained in negative control wells was subtracted from the value of each test well from the same sample. Negative counts generated by this background subtraction were converted to zero. The mean number of spots of the test sample was then calculated and expressed as spot forming cells/million (sfc/m). A positive response was defined as a significant difference (p=<0.05) between average of the number of spot forming cells (sfc) in test wells and the average of negative control wells (Student's two tailed t-test), and at least a doubling of sfc in test wells relative to negative control wells, and a difference of at least ten sfc between test and negative control wells (Sedegah, et al., PLoS One, 6: e24586 (2011)).

[1] abbreviates: volunteer 58 (Ad-C), synthesized 8-10mer epitope.
Where [2] appears, read: volunteer 156 (Ad-CA), synthesized 8-10mer epitope.

As to AILSVSSFLF [Epitope E18], the “ELISpot response to synthesized epitope (in words)” value was “positive”. Further, the Epitope sfc/m (volunteer 63 (Ad-C), synthesized 8-10mer epitope) was 41 sfc/m.
In the case of “TNLYNELEMNYYGKQ [Cp2-C12, 15mer CSP peptide aa 45-59]”, the 15 mer sfc/m is, setting by setting: (volunteer 01 (Ad-CA)) 119 sfc/m; (volunteer 12 (Ad-CA)) 411 sfc/m.
Consider “KCSSVFNVVNSSIGL [Cp9-C62, 15mer CSP peptide aa 373-387]”, for which, for the setting “volunteer 01 (Ad-CA)”, the 15 mer sfc/m was found to be 116 sfc/m.
Consider FLFVEALFQE [Epitope E1], for which the “ELISpot response to synthesized epitope (in words)” value was “active; also recorded: positive; also recorded: demonstrated activity”. Besides, the Epitope sfc/m under setting [1] came out at 49 sfc/m. Besides, the Epitope sfc/m under setting [2] turned out to be 105 sfc/m.
With “SVSSFLFVEALFQEY [Cp1-C3, 15mer CSP peptide aa 9-23]”, the “ELISpot response to individual 15mer peptide (in words)” value is recorded as “positive”. Under “volunteer 05 (Ad-CA)”, this molecule yielded a 15 mer sfc/m of 65 sfc/m. Besides, for the setting “volunteer 58 (Ad-C)”, the 15 mer sfc/m amounted to 29 sfc/m. Under “volunteer 69 (Ad-C)”, the 15 mer sfc/m is 385 sfc/m.
For “VFNVVNSSIGLIMVL [Cp9-C63, 15mer CSP peptide aa 377-391]”, the “ELISpot response to individual 15mer peptide (in words)” value is “positive”. For the same molecule, under “volunteer 08 (Ad-CA)”, the 15 mer sfc/m is given as 109 sfc/m. For the setting “volunteer 61 (Ad-C)”, this molecule displayed a 15 mer sfc/m of 80 sfc/m.
As for “SSIGLIMVLSFLFLN [Cp9-C65, 15mer CSP peptide aa 383-397]”, the 15 mer sfc/m reads like this: (volunteer 01 (Ad-CA)) 46 sfc/m; (volunteer 02 (Ad-CA)) 44 sfc/m; (volunteer 08 (Ad-CA)) 62 sfc/m.
As for “VNSSIGLIMVLSFLF [Cp9-C64, 15mer CSP peptide aa 381-395]”, the 15 mer sfc/m (volunteer 08 (Ad-CA)) came to 91 sfc/m.
The molecule “EKKICKMEKCSSVFN [Cp9-C60, 15mer CSP peptide aa 365-379]” returned a 15 mer sfc/m (volunteer 61 (Ad-C)) of 39 sfc/m.
With `CC[C@H](C)[C@H](NC(=O)[C@H](C)N)C(=O)N[C@@H](CC(C)C)C(=O)N[C@@H](CO)C(=O)N[C@H](C(=O)N[C@@H](CO)C(=O)N[C@@H](CO)C(=O)N[C@@H](Cc1ccccc1)C(=O)N[C@@H](CC(C)C)C(=O)O)C(C)C` [Epitope E18a], the “ELISpot response to synthesized epitope (in words)” value is reported as “demonstrated activity”.
As to “ELNYDNAGTNLYNEL [Cp2-C10, 15mer CSP peptide aa 37-51]”, the 15 mer sfc/m (volunteer 41 (Ad-C)) is reported as 35 sfc/m.
As for “FLFVEALFQEYQCYG [Cp1-C4, 15mer CSP peptide aa 13-27]”, the “ELISpot response to individual 15mer peptide (in words)” value is reported as “positive”. Where the note is “volunteer 01 (Ad-CA)”, the 15 mer sfc/m was 48 sfc/m. For the same molecule, for the setting “volunteer 05 (Ad-CA)”, the 15 mer sfc/m was 44 sfc/m. For the setting “volunteer 12 (Ad-CA)”, this molecule returned a 15 mer sfc/m of 87 sfc/m. This molecule also yielded a 15 mer sfc/m (volunteer 69 (Ad-C)) of 368 sfc/m.
Take SVFNVVNSSI [Epitope E13]: the “ELISpot response to synthesized epitope (in words)” value was “positive; also recorded: demonstrated activity”. Moreover, the Epitope sfc/m (volunteer 37 (Ad-C), synthesized epitope, single value or first of two assays) was 28 sfc/m. Also, under setting [1], the Epitope sfc/m was determined as 80 sfc/m.
With `CC(C)C[C@H](NC(=O)[C@H](C)NC(=O)[C@H](CCC(=O)O)NC(=O)[C@@H](NC(=O)[C@H](Cc1ccccc1)NC(=O)[C@@H](N)CC(C)C)C(C)C)C(=O)N[C@@H](Cc1ccccc1)C(=O)N[C@@H](CCC(N)=O)C(=O)N[C@@H](CCC(=O)O)C(=O)N[C@@H](Cc1ccc(O)cc1)C(=O)O` [Epitope E3] (H-LFVEALFQEY-OH; N-terminus and C-terminus assumed), the “ELISpot response to synthesized epitope (in words)” value is “active; also recorded: positive; also recorded: demonstrated activity”. For the same molecule, the Epitope sfc/m (volunteer 69 (Ad-C), synthesized 8-10mer epitope) is on record as 259 sfc/m. The Epitope sfc/m (volunteer 127 (Ad-CA), synthesized 8-10mer epitope) worked out at 99 sfc/m.
Where the note is “volunteer 58 (Ad-C)”, “EALFQEYQCYGSSSN [Cp1-05, 15mer CSP peptide aa 17-31]” had a 15 mer sfc/m of 105 sfc/m.
As to “NELEMNYYGKQENWY [Cp2-C13, 15mer CSP peptide aa 49-63]”, the 15 mer sfc/m is, setting by setting: (volunteer 01 (Ad-CA)) 116 sfc/m; (volunteer 12 (Ad-CA)) 334 sfc/m.
For the setting “volunteer 58 (Ad-C)”, “QEYQCYGSSSNTRVL [Cp1-C6, 15mer CSP peptide aa 21-35]” had a 15 mer sfc/m of 83 sfc/m.
Consider KEYLNKIQNSLSTEW [Cp6-C48], for which the “ELISpot response to individual 15mer peptide (in words)” value is recorded as “positive”. For the same molecule, the 15 mer sfc/m (volunteer 05 (Ad-CA)) is recorded as 106 sfc/m. This molecule yielded a 15 mer sfc/m (volunteer 41 (Ad-C)) of 103 sfc/m. The 15 mer sfc/m (volunteer 58 (Ad-C)) came out at 45 sfc/m.
The molecule DKHIKEYLNKIQNSL [Cp6-C47] gave a 15 mer sfc/m (volunteer 61 (Ad-C)) of 48 sfc/m.
As for “IMVLSFLFL (listed as Plasmodium falciparum) [Epitope E21, CSP aa 388-396]”, the “ELISpot response to synthesized epitope (in words)” value is “low to modest response; also recorded: demonstrated activity”. This molecule also gave an Epitope sfc/m (volunteer 125 (Ad-CA), synthesized 8-10mer epitope) of 29 sfc/m.
Regarding `CC[C@H](C)[C@H](NC(=O)[C@@H](N)CC(C)C)C(=O)N[C@@H](CCSC)C(=O)N[C@H](C(=O)N[C@@H](CC(C)C)C(=O)N[C@@H](CO)C(=O)N[C@@H](Cc1ccccc1)C(=O)N[C@@H](CC(C)C)C(=O)N[C@@H](Cc1ccccc1)C(=O)N[C@@H](CC(C)C)C(=O)O)C(C)C` [Epitope E17], the “ELISpot response to synthesized epitope (in words)” value was “positive”. Under setting [2], this molecule had an Epitope sfc/m of 156 sfc/m.

(Values after patent publication US9645147B2, “Recombinant polypeptide construct comprising Plasmodium falciparum circumsporozoite protein HLA class I restricted T-cell epitopes” (priority 2013, dated 2017).)
